From ChEMBL document CHEMBL1149085, “Potential utility of histamine H3 receptor antagonist pharmacophore in antipsychotics” (Bioorg Med Chem Lett, 2009)

Key:
[1] = target: D(1A) dopamine receptor (Homo sapiens, UniProt P21728); experiment: biochemical
Description: Displacement of [3H]SCH23390 from human dopamine D1 receptor expressed in HEK cells

[2] = target: D(3) dopamine receptor (Homo sapiens, UniProt P35462); experiment: biochemical
Description: Displacement of [3H]spiperone from human dopamine D3 receptor expressed in CHO cells

[3] = target: D(1B) dopamine receptor (Homo sapiens, UniProt P21918); experiment: biochemical
[4] = target: Histamine H3 receptor (Homo sapiens, UniProt Q9Y5N1); experiment: biochemical; assay type: cell-based, HEK293
Chain of Histamine H3 receptor (Q9Y5N1 whole entry): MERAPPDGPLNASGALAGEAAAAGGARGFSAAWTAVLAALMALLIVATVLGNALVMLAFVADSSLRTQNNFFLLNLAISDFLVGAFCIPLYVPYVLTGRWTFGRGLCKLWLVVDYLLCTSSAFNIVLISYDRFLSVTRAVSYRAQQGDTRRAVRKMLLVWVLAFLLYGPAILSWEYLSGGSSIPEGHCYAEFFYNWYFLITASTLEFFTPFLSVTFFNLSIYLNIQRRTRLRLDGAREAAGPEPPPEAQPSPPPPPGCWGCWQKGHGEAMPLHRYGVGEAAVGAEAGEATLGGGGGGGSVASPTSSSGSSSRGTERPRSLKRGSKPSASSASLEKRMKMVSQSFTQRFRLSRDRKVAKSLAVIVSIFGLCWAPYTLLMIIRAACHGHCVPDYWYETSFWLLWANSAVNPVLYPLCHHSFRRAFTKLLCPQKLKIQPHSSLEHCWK
Description: Displacement of [125I]iodoproxyfan from human histamine H3 receptor expressed in CHO/HEK293 cells

[5] = target: D(2) dopamine receptor (Homo sapiens, UniProt P14416); experiment: biochemical; assay type: cell-based, CHO
Chain of D(2) dopamine receptor (P14416 whole entry): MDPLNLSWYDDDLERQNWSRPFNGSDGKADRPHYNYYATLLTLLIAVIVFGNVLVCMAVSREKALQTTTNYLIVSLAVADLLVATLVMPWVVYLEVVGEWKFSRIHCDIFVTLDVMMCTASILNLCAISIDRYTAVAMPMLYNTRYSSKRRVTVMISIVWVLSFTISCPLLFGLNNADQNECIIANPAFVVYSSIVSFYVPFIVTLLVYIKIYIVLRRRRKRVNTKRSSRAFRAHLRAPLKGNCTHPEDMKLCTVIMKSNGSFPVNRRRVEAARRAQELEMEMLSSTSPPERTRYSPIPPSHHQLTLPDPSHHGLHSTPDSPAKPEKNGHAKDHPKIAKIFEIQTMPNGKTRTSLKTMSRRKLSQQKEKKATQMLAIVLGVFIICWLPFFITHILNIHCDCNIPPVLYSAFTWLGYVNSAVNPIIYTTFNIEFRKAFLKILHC
Description: Displacement of [3H]spiperone from human dopamine D2 receptor expressed in CHO cells

[6] = species: Mus musculus; experiment: animal or person; assay type: functional; details: Swiss, Cerebral cortex, po, 1.5 h
Description: Antagonist activity at histamine H3 receptor in po dosed Swiss mouse cerebral cortex assessed as Ntau-methylhistamine level after 90 mins by radioimmunoassay

Chain of D(1A) dopamine receptor (P21728 whole entry): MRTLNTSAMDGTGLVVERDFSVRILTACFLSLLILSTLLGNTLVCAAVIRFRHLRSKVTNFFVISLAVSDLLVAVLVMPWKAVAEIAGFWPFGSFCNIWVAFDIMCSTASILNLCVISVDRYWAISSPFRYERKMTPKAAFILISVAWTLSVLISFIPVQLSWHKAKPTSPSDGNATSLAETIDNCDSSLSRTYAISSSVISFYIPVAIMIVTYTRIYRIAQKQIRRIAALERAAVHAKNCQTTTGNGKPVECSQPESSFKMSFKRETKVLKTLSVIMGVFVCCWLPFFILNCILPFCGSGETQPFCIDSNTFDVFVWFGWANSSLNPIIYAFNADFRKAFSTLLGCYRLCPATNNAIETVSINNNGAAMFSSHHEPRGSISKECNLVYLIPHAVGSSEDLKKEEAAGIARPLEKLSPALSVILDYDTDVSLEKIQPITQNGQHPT
Chain of D(3) dopamine receptor (P35462 whole entry): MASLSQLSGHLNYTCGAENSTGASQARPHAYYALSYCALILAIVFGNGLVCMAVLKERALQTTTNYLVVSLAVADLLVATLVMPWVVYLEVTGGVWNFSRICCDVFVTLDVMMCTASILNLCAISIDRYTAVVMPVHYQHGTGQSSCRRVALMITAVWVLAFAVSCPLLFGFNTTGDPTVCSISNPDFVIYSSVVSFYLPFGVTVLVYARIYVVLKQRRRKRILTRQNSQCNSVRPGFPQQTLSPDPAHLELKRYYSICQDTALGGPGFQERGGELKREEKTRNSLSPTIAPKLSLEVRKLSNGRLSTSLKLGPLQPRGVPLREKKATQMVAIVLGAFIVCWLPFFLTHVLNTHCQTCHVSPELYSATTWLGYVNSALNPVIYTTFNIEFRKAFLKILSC
Chain of D(1B) dopamine receptor (P21918 whole entry): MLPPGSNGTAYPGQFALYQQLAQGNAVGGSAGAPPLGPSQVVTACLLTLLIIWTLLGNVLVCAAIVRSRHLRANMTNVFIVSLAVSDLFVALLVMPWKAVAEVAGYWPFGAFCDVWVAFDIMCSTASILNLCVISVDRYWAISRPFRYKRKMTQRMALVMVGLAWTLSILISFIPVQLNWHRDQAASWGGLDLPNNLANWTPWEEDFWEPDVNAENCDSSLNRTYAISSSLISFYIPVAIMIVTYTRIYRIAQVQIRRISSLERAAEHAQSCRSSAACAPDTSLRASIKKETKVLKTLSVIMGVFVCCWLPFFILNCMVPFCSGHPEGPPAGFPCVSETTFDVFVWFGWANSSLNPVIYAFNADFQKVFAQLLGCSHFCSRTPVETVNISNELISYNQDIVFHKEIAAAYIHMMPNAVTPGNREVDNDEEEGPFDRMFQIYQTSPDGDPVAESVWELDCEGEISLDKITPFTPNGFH

Row | Compound | Ki [1] [nM] | Ki [2] [nM] | Ki [3] [nM] | Ki [4] [nM] | Ki [5] [nM] | ED50 [6] [mg/kg]
1 | Clc1ccc2c(c1)N=C(N1CCN(Cc3ccc(OCCCN4CCCCC4)cc3)CC1)c1ccccc1N2 | 866 | 223 | 921 | 3.27 | 285 | 
3 | CN(CCC=C1c2ccccc2CCc2ccccc21)C(=O)Cc1ccc(OCCCN2CCCCC2)cc1 | 879 | 326 | > 1000 | 4.9 | 904 | 
4 | CN(C)CC/C=C1/c2ccccc2Sc2ccc(Cl)cc21 [CHLORPROTHIXENE] |  | 4.56 | 9 |  | 2.96 | 
5 | CN(CCC=C1c2ccccc2CCc2ccccc21)C(=O)c1ccc(OCCCN2CCCCC2)cc1 | > 1000 | 243 | > 1000 | 3.5 | > 1000 | 
6 | CN(CCC=C1c2ccccc2CCc2ccccc21)Cc1ccc(OCCCN2CCCCC2)cc1 | 305 | 67 | 273 | 0.25 | 101 | > 10

The next lines start with results.

Row | Ki [1] [nM] | Ki [2] [nM] | Ki [3] [nM] | Ki [4] [nM] | Ki [5] [nM] | Compound | ED50 [6] [mg/kg]
7 | 203 | 15 | 265 | 0.042 | 47 | O=C(OCCN1CCN(CCCN2c3ccccc3Sc3ccc(C(F)(F)F)cc32)CC1)c1ccc(OCCCN2CCCCC2)cc1 | 
8 | 203 | 149 | 265 | 0.358 | 146 | CN(CCCC12CCC(c3ccccc31)c1ccccc12)Cc1ccc(OCCCN2CCCCC2)cc1 | 
9 | 248 | 50 |  | 1.54 | 52 | CN(CC/C=C1\c2ccccc2Sc2ccc(Cl)cc21)Cc1ccc(OCCCN2CCCCC2)cc1 | 
10 | 232 | 50 | 153 | 1.21 | 41 | CN(CCCN1c2ccccc2Sc2ccc(Cl)cc21)Cc1ccc(OCCCN2CCCCC2)cc1 | 
